Test results: paper PMC6886798, “Expression of myeloid Src-family kinases is associated with poor prognosis in AML and influences Flt3-ITD kinase inhibitor acquired resistance” (PLoS ONE, 2019)
Like-named read-outs stand apart in the source and are kept apart here.

Tests used:
[1] = molecular target: T1, Hck T338F (Homo sapiens, UniProt P08631, T333F); assay: Z'-LYTE in vitro kinase assay; type: biochemical
T1 construct: Recombinant near-full-length kinases, consisting of the SH2, SH3 and kinase domains plus the negative regulatory tail; made in house; host or cells: E. coli BL21Star (DE3), co-expressed with Csk and PTP1B
T1 sequence (P08631 78-526 T333F limits assumed): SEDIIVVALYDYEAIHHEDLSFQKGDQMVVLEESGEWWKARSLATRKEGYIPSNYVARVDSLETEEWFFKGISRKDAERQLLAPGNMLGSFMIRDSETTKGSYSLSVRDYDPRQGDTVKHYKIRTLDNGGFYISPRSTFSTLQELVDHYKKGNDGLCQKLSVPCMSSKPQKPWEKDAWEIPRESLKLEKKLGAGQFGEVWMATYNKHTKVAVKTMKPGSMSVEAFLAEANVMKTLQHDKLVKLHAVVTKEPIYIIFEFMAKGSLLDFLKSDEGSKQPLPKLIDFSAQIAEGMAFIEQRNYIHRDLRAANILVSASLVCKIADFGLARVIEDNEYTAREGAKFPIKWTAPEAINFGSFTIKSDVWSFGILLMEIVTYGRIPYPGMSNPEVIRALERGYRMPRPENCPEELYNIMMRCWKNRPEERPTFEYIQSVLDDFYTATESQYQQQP

[2] = molecular target: T2, Fgr T338M (Homo sapiens, UniProt P09769, T334M); assay: Z'-LYTE in vitro kinase assay; type: biochemical
T2 construct: Recombinant near-full-length kinases, consisting of the SH2, SH3 and kinase domains plus the negative regulatory tail; made in house; host or cells: E. coli BL21Star (DE3), co-expressed with Csk and PTP1B
Description: (§5) Assays were performed in quadruplicate in 384-well low volume, non-binding, black polystyrene microplates (Corning) according to the manufacturer’s instructions. Briefly, this assay measures phosphorylation of the Tyr2 peptide substrate which is tagged with coumarin and fluorescein on its N- and C-termini, respectively, to form a FRET pair. After the kinase reaction, a development step involves site-specific proteolytic cleavage of the unphosphorylated but not the phosphorylated peptide. […] Kinase reactions were run in 50 mM HEPES, pH 7.5, 10 mM MgCl2, 1 mM EGTA, and 0.01% BRIJ-35 (buffer supplied by the manufacturer). […] Following incubation for 1 h at ambient temperature, reactions were quenched by addition of the development protease, and coumarin and fluorescein fluorescence were measured 1 h later on a Molecular Devices SpectraMax M5 plate reader. […] For experiments with inhibitors, compounds were preincubated with kinase for 30 min prior to initiation of the reaction by the addition of ATP.

[3] = molecular target: T3, Fgr T338L (Homo sapiens, UniProt P09769, T334L); assay: Z'-LYTE in vitro kinase assay; type: biochemical; conditions: read-out: A-419259 IC50, Fig 5B, ATP at Km, mean ± SE, three independent determinations
T3 construct: Recombinant near-full-length kinases, consisting of the SH2, SH3 and kinase domains plus the negative regulatory tail; made in house; host or cells: E. coli BL21Star (DE3), co-expressed with Csk and PTP1B
Description: as §5

[4] = molecular target: T4, Lyn T338M (Homo sapiens, UniProt P07948, T319M); assay: Z'-LYTE in vitro kinase assay; type: biochemical; conditions: read-out: A-419259 IC50, Fig 5B, ATP at Km, mean ± SE, three independent determinations
T4 construct: Recombinant near-full-length kinases, consisting of the SH2, SH3 and kinase domains plus the negative regulatory tail; made in house; host or cells: E. coli BL21Star (DE3), co-expressed with Csk and PTP1B
T4 sequence (P07948 63-512 T319M limits assumed): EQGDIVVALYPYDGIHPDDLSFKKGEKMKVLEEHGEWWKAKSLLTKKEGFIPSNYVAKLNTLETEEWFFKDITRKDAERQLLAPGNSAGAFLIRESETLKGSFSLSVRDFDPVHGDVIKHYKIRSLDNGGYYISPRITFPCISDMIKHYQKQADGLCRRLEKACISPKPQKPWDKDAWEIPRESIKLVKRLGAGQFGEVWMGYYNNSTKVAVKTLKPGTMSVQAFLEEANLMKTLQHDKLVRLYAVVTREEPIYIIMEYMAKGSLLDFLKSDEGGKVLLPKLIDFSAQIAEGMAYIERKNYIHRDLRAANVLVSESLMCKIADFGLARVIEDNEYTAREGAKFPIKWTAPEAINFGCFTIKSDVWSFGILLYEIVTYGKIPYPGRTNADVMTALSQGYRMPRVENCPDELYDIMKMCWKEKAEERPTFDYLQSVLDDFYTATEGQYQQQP

[5] = test system: MOLM13 cells (parent); assay: CellTiter-Blue cell viability; type: cell-based, human
Description: (§1) Gibco/ThermoFisher). Parental TF-1 cells also require recombinant human GM-CSF (1 ng/mL; ThermoFisher). MOLM13 and MOLM14 cells were obtained from Leibniz Institute Deutsche Sammlung von Mikroorganismen (DSMZ) and grown in RPMI 1640 medium containing 20% FBS and Antibiotic-Antimycotic. […] Cell viability was assessed using the CellTiter-Blue reagent according to the manufacturer’s instructions (Promega). Fluorescence intensity, which correlates directly with viable cell number, was measured using a SpectraMax M5 microplate reader. Each experiment included three technical replicates per condition, and each experiment was repeated at least three times.

[6] = test system: MOLM14 cells (parent); assay: CellTiter-Blue cell viability; type: cell-based, human
Description: as §1

[7] = test system: MV4-11 cells (parent); assay: CellTiter-Blue cell viability; type: cell-based, human
Description: as §1

[8] = test system: TF-1/FLT3-ITD + Fgr-T338L cells; assay: CellTiter-Blue cell viability; type: cell-based, human
Description: (§2) Full-length cDNA clones of each kinase were subcloned into the retroviral expression vectors pMSCV-neo or pMSCV-puro (Clontech). High-titer retroviral stocks were produced in 293T cells co-transfected with each pMSCV construct and an amphotropic packaging vector. TF-1 cells (10^6) were resuspended in 5.0 mL of undiluted viral supernatant and centrifuged at 1,000 × g for 4 h at 18 °C in the presence of 4 μg/mL Polybrene (Sigma-Aldrich) to enhance viral transduction. Forty-eight hours after infection, the cells began a two-week selection period with 400 μg/ml G-418 (neo vectors) or 3 μg/mL puromycin (puro vectors). Following selection, cells were maintained with 200 μg/ml G418 or 1 μg/mL puromycin. For double transduction experiments, TF-1 cells were first infected with the pMSCV-neo-Flt3-ITD virus, selected with G418, followed by the pMSCV-puro virus carrying Hck or Fgr and puromycin selection. All TF-1 cell populations that expressed Flt3-ITD (including inhibitor-resistant mutants) proliferated in a GM-CSF-independent manner, and were therefore subcultured in the absence of GM-CSF.
(§3) Cells were seeded at 10^5 per mL in the presence or absence of inhibitors with DMSO as carrier solvent (0.1% final). Cell viability was assessed using the CellTiter-Blue reagent according to the manufacturer’s instructions (Promega). Fluorescence intensity, which correlates directly with viable cell number, was measured using a SpectraMax M5 microplate reader. Each experiment included three technical replicates per condition, and each experiment was repeated at least three times.

[9] = test system: TF-1/FLT3-ITD + Fgr-T338M cells; assay: CellTiter-Blue cell viability; type: cell-based, human
Description: as §2, §3

[10] = test system: TF-1/Flt3-ITD + Hck cells; assay: CellTiter-Blue cell viability; type: cell-based, human; conditions: Fig 3; Flt3-ITD: WT; SFK: Hck; 72 hours; read-out: IC50, nM (growth inhibition)
Description: as §2, §3

[11] = test system: TF-1/Flt3-ITD D835Y + Hck cells; assay: CellTiter-Blue cell viability; type: cell-based, human; conditions: Fig 3, SFK: Hck, 72 hours, read-out: IC50, nM (growth inhibition)
Description: as §2, §3

[12] = test system: TF-1/Flt3-ITD N676S + Fgr cells; assay: CellTiter-Blue cell viability; type: cell-based, human; conditions: S9 Fig, 48 h
Description: as §2, §3

[13] = test system: TF-1/Flt3-ITD N676S + Hck cells; assay: CellTiter-Blue cell viability; type: cell-based, human; conditions: S9 Fig, 48 h
Description: as §2, §3

[14] = test system: TF-1/Flt3-ITD N676S cells; assay: CellTiter-Blue cell viability; type: cell-based, human
Description: as §2, §3

[15] = test system: TF-1/Flt3-ITD cells; assay: CellTiter-Blue cell viability; type: cell-based, human; conditions: 72 hours
Description: as §2, §3

[16] = test system: Flt3-ITD N676S in TF-1 cells; assay: Flt3 immunoprecipitation, anti-phosphotyrosine immunoblot; type: cell-based, human; conditions: vs Flt3-ITD; overnight
Description: Immunoprecipitation reactions were incubated overnight at 4 °C.

[17] = molecular target: CDC2L5 (Homo sapiens, UniProt Q14004); conditions: 1.0 µM
Chain of CDC2L5 (Q14004 whole entry): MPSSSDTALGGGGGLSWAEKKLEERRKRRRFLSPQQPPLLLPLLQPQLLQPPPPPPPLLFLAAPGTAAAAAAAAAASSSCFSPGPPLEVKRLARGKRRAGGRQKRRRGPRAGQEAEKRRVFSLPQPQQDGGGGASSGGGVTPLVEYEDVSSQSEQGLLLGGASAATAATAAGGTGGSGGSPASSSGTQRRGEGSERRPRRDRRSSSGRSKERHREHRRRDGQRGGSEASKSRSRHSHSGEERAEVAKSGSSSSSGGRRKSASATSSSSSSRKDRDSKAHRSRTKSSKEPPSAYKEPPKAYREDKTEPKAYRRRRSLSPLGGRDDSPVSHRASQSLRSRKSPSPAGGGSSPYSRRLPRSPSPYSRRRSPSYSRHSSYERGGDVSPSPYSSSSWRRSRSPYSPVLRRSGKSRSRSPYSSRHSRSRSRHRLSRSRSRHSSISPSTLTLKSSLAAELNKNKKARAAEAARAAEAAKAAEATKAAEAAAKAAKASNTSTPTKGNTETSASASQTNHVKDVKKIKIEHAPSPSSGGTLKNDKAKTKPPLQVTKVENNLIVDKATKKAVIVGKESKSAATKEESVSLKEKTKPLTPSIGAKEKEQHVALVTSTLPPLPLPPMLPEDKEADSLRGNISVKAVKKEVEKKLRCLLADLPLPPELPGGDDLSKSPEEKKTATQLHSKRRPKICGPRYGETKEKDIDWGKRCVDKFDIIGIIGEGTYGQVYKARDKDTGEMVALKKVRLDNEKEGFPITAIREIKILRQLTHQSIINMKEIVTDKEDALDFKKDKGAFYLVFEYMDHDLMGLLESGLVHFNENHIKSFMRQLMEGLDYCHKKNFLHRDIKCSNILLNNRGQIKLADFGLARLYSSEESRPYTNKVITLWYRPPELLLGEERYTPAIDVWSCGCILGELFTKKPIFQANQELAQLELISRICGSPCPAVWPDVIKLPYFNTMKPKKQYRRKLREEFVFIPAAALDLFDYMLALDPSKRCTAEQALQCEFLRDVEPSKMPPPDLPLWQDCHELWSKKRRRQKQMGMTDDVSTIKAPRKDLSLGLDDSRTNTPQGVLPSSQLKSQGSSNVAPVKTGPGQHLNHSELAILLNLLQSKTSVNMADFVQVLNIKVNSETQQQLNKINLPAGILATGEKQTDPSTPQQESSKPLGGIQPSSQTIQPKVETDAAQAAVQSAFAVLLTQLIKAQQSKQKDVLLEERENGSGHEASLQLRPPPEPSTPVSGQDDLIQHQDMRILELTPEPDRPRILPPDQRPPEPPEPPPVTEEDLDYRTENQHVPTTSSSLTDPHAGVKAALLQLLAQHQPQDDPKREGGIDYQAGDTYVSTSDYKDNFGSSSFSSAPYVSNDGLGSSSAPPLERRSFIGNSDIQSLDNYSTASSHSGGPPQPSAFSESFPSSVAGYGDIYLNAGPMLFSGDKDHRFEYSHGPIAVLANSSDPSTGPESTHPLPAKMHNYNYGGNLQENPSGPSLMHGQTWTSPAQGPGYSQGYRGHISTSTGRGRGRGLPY
Description: (§4) Kinase retention to the immobilized ligand is then measured using quantitative real-time PCR for each kinase-specific DNA barcode.

[18] = molecular target: PKNB(M.tuberculosis) (Mycobacterium tuberculosis, UniProt P9WI81); conditions: 1.0 µM
Chain of PKNB(M.tuberculosis) (P9WI81 whole entry): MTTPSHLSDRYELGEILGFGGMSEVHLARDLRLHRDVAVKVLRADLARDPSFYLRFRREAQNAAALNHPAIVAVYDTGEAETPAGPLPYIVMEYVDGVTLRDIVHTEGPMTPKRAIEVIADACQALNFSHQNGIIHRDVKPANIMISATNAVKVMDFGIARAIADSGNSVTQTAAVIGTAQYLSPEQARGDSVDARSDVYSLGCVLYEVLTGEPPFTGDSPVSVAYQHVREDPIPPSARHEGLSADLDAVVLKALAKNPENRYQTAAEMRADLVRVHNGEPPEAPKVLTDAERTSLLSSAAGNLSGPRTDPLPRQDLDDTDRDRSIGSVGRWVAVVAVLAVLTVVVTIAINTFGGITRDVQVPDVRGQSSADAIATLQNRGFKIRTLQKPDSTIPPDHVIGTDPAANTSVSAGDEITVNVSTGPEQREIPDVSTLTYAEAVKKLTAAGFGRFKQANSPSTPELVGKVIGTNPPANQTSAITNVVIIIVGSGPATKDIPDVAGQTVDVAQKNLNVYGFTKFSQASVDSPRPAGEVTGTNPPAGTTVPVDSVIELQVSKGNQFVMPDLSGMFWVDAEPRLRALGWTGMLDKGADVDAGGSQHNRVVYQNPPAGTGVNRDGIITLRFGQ
Description: as §4

[19] = test system: EGFR(L747-T751del,Sins); assay: KINOMEscan; type: binding, human; conditions: 1.0 µM
Description: as §4

[20] = test system: FLT3(ITD,D835V); assay: KINOMEscan; type: binding, human; conditions: 1.0 µM
Description: as §4

[21] = molecular target: T5, HCK (Homo sapiens, UniProt P08631); assay: KINOMEscan; type: binding; conditions: 1.0 µM
T5 construct: purchased Eurofins/DiscoverX KINOMEscan scanMAX
T5 sequence (P08631 whole entry): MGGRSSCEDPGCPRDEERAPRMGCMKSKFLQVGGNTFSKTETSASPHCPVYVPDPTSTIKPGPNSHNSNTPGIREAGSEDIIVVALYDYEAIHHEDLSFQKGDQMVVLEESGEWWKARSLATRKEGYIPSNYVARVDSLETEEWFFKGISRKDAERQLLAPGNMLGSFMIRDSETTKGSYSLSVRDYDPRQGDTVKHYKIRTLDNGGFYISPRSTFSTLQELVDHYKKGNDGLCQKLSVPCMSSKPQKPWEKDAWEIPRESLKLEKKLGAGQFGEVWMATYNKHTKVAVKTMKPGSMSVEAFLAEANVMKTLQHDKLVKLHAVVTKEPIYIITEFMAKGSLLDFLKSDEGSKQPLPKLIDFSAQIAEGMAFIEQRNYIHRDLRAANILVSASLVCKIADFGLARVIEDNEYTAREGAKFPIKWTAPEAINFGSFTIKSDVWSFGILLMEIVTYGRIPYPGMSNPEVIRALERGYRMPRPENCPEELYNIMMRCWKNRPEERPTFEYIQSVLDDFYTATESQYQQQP

[22] = molecular target: T6, LYN (Homo sapiens, UniProt P07948); assay: KINOMEscan; type: binding; conditions: 1.0 µM
T6 construct: purchased Eurofins/DiscoverX KINOMEscan scanMAX
T6 sequence (P07948 whole entry): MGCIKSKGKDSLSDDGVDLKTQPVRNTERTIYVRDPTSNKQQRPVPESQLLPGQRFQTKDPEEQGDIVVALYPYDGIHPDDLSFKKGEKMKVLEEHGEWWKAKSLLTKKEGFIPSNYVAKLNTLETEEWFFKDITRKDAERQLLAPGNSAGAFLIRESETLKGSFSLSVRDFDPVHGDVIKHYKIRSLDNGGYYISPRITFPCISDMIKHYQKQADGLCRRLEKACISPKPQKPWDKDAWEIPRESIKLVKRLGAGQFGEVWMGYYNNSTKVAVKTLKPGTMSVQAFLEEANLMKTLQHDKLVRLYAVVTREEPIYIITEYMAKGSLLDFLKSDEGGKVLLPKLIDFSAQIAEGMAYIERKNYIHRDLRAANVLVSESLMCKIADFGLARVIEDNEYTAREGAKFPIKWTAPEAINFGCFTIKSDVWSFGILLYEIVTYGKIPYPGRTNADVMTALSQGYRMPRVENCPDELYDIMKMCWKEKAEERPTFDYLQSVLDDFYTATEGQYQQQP

[23] = read-out: A-419259 Sensitivity (IC50, nM) Initial, mean ± SE (n = 3)
[24] = read-out: A-419259 Sensitivity (IC50, nM) Post-holiday, after 4 weeks passage in the absence of inhibitor, mean ± SE (n = 3)

CN1CCN(C2CCC(n3cc(-c4ccc(Oc5ccccc5)cc4)c4c(N)ncnc43)CC2)CC1 (stereo not shown) [A-419259]
reduction of kinase sensitivity to A-419259 ([1]; Hck gatekeeper threonine to phenylalanine, vs wild-type): ~5 fold
IC50 ([1]; read-out: A-419259 IC50, Fig 5B, Hck T338F, ATP at Km, mean ± SE, three independent determinations): 201 ± 1 nM
resistance to A-419259 ([2]; Fgr gatekeeper methionine substitution, vs wild-type): 2.5 fold
IC50 ([2]; read-out: A-419259 IC50, Fig 5B, Fgr T338M, ATP at Km, mean ± SE, three independent determinations): 160.6 ± 1.1 nM
IC50 [3]: 218.4 ± 1.1 nM
IC50 [4]: 127.8 ± 1 nM
IC50 [5, 23]: 40.3 ± 9.9 nM
IC50 [5, 24]: 38.4 ± 0.9 nM
IC50 [6, 23]: 14.3 ± 1.5 nM
IC50 [6, 24]: 26.4 ± 7.7 nM
IC50 ([7]; Fig 3A, 72 hours, read-out: IC50 (cell viability)): 58 nM
IC50 ([7]; read-out: A-419259 Sensitivity (IC50, nM) Initial, MV4-11 Parent, mean ± SE (n = 3)): 28.3 ± 3.5 nM
IC50 ([7]; read-out: A-419259 Sensitivity (IC50, nM) Post-holiday, MV4-11 Parent, after 4 weeks passage in the absence of inhibitor, mean ± SE (n = 3)): 27.5 ± 4.3 nM
resistance to the inhibitor in cells ([8]; Fgr T338L as printed): about 3 fold
IC50 ([8]; Fig 6B, TF-1/FLT3-ITD + Fgr-T338L, 72 hours): > 1000 nM
resistance to the inhibitor in cells [9]: about 3 fold
IC50 [10]: 15.4 nM
IC50 [11]: > 100 nM
IC50 [12]: 173 nM
IC50 [13]: 129 nM
IC50 ([14]; Fig 9A, 72 hours, read-out: IC50 (growth arrest)): 176 nM
IC50 ([14]; S9 Fig, N676S control, 48 h, read-out: IC50 (cell viability)): 89.1 nM
IC50 ([15]; Fig 3, Flt3-ITD: WT, SFK: none, read-out: IC50, nM (growth inhibition)): 18.2 nM
IC50 ([15]; Fig 9A, control TF-1/Flt3-ITD cells, read-out: IC50 (growth arrest)): 26 nM
sensitivity of phosphotyrosine content to A-419259 [16]: significantly reduced sensitivity
% Control [17]: 77%
% Control [18]: 82%
% Control [19]: 16%
% Control [20]: 30%
% Control [21]: 1.9%
% Control [22]: 1.7%
